Laboratory results as given in ChEMBL document CHEMBL3885881, “DrugMatrix”.

Species on record: Rattus norvegicus
Assay: DrugMatrix - Regimen: Daily Repeat
Format: toxicity, organism-based, Sprague-Dawley
Design: regimen Daily Repeat, gender Male, age 6-8 weeks
Details: in vivo, po, route oral GAVAGE, […]; for ABSOLUTE BASOPHIL / ABSOLUTE EOSINOPHIL / ABSOLUTE LYMPHOCYTE / ABSOLUTE SEGMENTED NEUTROPHIL / BASOPHIL / EOSINOPHIL / ERYTHROCYTE COUNT / HEMATOCRIT / HEMOGLOBIN / LYMPHOCYTE / MEAN CORPUSCULAR HEMOGLOBIN / MEAN CORPUSCULAR HEMOGLOBIN CONCENTRATION / MEAN CORPUSCULAR VOLUME / MONOCYTE / NUCLEATED RED BLOOD CELLS / PLATELET COUNT: tissue Blood; for ALANINE AMINOTRANSFERASE / ALBUMIN / ALKALINE PHOSPHATASE / ASPARTATE AMINOTRANSFERASE / BLOOD UREA NITROGEN / CARBON DIOXIDE / CHOLESTEROL / CREATINE PHOSPHOKINASE / CREATININE / GLUCOSE / LACTATE DEHYDROGENASE / POTASSIUM / SODIUM / TOTAL BILIRUBIN / TOTAL PROTEIN / URIC ACID: tissue Plasma
[1] = 0 mg/kg, 72 h, dose level Control, time 3 day
[2] = 0 mg/kg, 120 h, dose level Control, time 5 day
[3] = 20 mg/kg, 72 h, dose level Low, time 3 day
[4] = 20 mg/kg, 120 h, dose level Low, time 5 day
[5] = 2000 mg/kg, 72 h, dose level High, time 3 day
[6] = 2000 mg/kg, 120 h, dose level High, time 5 day

## COc1ccccc1OCCNCC(O)COc1cccc2[nH]c3ccccc3c12 (configuration not stated) [CARVEDILOL]
[1]
  ABSOLUTE BASOPHIL: 0 CELLS/uL
  ABSOLUTE EOSINOPHIL: 0 CELLS/uL
  ABSOLUTE LYMPHOCYTE: 9244.83 CELLS/uL
  ABSOLUTE SEGMENTED NEUTROPHIL: 869.83 CELLS/uL
  BASOPHIL: 0%
  EOSINOPHIL: 0%
  ERYTHROCYTE COUNT: 5.43 x10E6/uL
  HEMATOCRIT: 34.03%
  HEMOGLOBIN: 13.27 G/DL
  LYMPHOCYTE: 90.33%
  MEAN CORPUSCULAR HEMOGLOBIN: 24.48 pg
  MEAN CORPUSCULAR HEMOGLOBIN CONCENTRATION: 39.03 G/DL
  MEAN CORPUSCULAR VOLUME: 62.75 fL
  MONOCYTE: 1%
  NUCLEATED RED BLOOD CELLS: 0.17 /100WBC
  PLATELET COUNT: 989 x10E3/uL
  ALANINE AMINOTRANSFERASE: 77 u/L
  ALBUMIN: 3.97 G/DL
  ALKALINE PHOSPHATASE: 464.83 u/L
  ASPARTATE AMINOTRANSFERASE: 89.83 u/L
  BLOOD UREA NITROGEN: 12.17 mg/dL
  CARBON DIOXIDE: 34.17 mmol/L
  CHOLESTEROL: 75.17 mg/dL
  CREATINE PHOSPHOKINASE: 367.67 u/L
  CREATININE: 0.16 mg/dL
  GLUCOSE: 142.67 mg/dL
  LACTATE DEHYDROGENASE: 139.33 u/L
  POTASSIUM: 6.38 MEQ/L
  SODIUM: 143.2 MEQ/L
  TOTAL BILIRUBIN: 0.2 mg/dL
  TOTAL PROTEIN: 5.77 G/DL
  URIC ACID: 0.7 mg/dL
[2]
  ABSOLUTE BASOPHIL: 0 CELLS/uL
  ABSOLUTE EOSINOPHIL: 0 CELLS/uL
  ABSOLUTE LYMPHOCYTE: 8295.33 CELLS/uL
  ABSOLUTE SEGMENTED NEUTROPHIL: 970 CELLS/uL
  BASOPHIL: 0%
  EOSINOPHIL: 0%
  ERYTHROCYTE COUNT: 5.74 x10E6/uL
  HEMATOCRIT: 36.22%
  HEMOGLOBIN: 13.85 G/DL
  LYMPHOCYTE: 88.67%
  MEAN CORPUSCULAR HEMOGLOBIN: 24.13 pg
  MEAN CORPUSCULAR HEMOGLOBIN CONCENTRATION: 38.25 G/DL
  MEAN CORPUSCULAR VOLUME: 63.08 fL
  MONOCYTE: 1%
  NUCLEATED RED BLOOD CELLS: 0.17 /100WBC
  PLATELET COUNT: 883.83 x10E3/uL
  ALANINE AMINOTRANSFERASE: 64.5 u/L
  ALBUMIN: 4.12 G/DL
  ALKALINE PHOSPHATASE: 425.67 u/L
  ASPARTATE AMINOTRANSFERASE: 88.5 u/L
  BLOOD UREA NITROGEN: 14.17 mg/dL
  CARBON DIOXIDE: 30.5 mmol/L
  CHOLESTEROL: 55.33 mg/dL
  CREATINE PHOSPHOKINASE: 287.17 u/L
  CREATININE: 0.2 mg/dL
  GLUCOSE: 162.83 mg/dL
  LACTATE DEHYDROGENASE: 111.33 u/L
  POTASSIUM: 5.13 MEQ/L
  SODIUM: 143.93 MEQ/L
  TOTAL BILIRUBIN: 0.17 mg/dL
  TOTAL PROTEIN: 5.9 G/DL
  URIC ACID: 0.77 mg/dL
[3]
  ABSOLUTE BASOPHIL: 0 CELLS/uL
  ABSOLUTE EOSINOPHIL: 67.33 CELLS/uL
  ABSOLUTE LYMPHOCYTE: 15458 CELLS/uL
  ABSOLUTE SEGMENTED NEUTROPHIL: 1844 CELLS/uL
  BASOPHIL: 0%
  EOSINOPHIL: 0.33%
  ERYTHROCYTE COUNT: 5.47 x10E6/uL
  HEMATOCRIT: 34.53%
  HEMOGLOBIN: 13.3 G/DL
  LYMPHOCYTE: 89.33%
  MEAN CORPUSCULAR HEMOGLOBIN: 24.47 pg
  MEAN CORPUSCULAR HEMOGLOBIN CONCENTRATION: 38.5 G/DL
  MEAN CORPUSCULAR VOLUME: 63.47 fL
  MONOCYTE: 0.33%
  NUCLEATED RED BLOOD CELLS: 0 /100WBC
  PLATELET COUNT: 907.33 x10E3/uL
  ALANINE AMINOTRANSFERASE: 76.33 u/L
  ALBUMIN: 4.1 G/DL
  ALKALINE PHOSPHATASE: 486 u/L
  ASPARTATE AMINOTRANSFERASE: 96.67 u/L
  BLOOD UREA NITROGEN: 11 mg/dL
  CARBON DIOXIDE: 32.67 mmol/L
  CHOLESTEROL: 75.67 mg/dL
  CREATINE PHOSPHOKINASE: 501.33 u/L
  CREATININE: 0.24 mg/dL
  GLUCOSE: 131 mg/dL
  LACTATE DEHYDROGENASE: 152.67 u/L
  POTASSIUM: 5.98 MEQ/L
  SODIUM: 145.6 MEQ/L
  TOTAL BILIRUBIN: 0.17 mg/dL
  TOTAL PROTEIN: 5.8 G/DL
  URIC ACID: 0.6 mg/dL
[4]
  ABSOLUTE BASOPHIL: 0 CELLS/uL
  ABSOLUTE EOSINOPHIL: 48 CELLS/uL
  ABSOLUTE LYMPHOCYTE: 6685 CELLS/uL
  ABSOLUTE SEGMENTED NEUTROPHIL: 615 CELLS/uL
  BASOPHIL: 0%
  EOSINOPHIL: 0.67%
  ERYTHROCYTE COUNT: 5.51 x10E6/uL
  HEMATOCRIT: 34.9%
  HEMOGLOBIN: 13.3 G/DL
  LYMPHOCYTE: 90.33%
  MEAN CORPUSCULAR HEMOGLOBIN: 24.17 pg
  MEAN CORPUSCULAR HEMOGLOBIN CONCENTRATION: 38.13 G/DL
  MEAN CORPUSCULAR VOLUME: 63.4 fL
  MONOCYTE: 0.67%
  NUCLEATED RED BLOOD CELLS: 0.33 /100WBC
  PLATELET COUNT: 1008 x10E3/uL
  ALANINE AMINOTRANSFERASE: 58.33 u/L
  ALBUMIN: 3.93 G/DL
  ALKALINE PHOSPHATASE: 439.33 u/L
  ASPARTATE AMINOTRANSFERASE: 81.67 u/L
  BLOOD UREA NITROGEN: 15 mg/dL
  CARBON DIOXIDE: 30.67 mmol/L
  CHOLESTEROL: 57 mg/dL
  CREATINE PHOSPHOKINASE: 167.67 u/L
  CREATININE: 0.13 mg/dL
  GLUCOSE: 153.67 mg/dL
  LACTATE DEHYDROGENASE: 137 u/L
  POTASSIUM: 5.49 MEQ/L
  SODIUM: 144.75 MEQ/L
  TOTAL BILIRUBIN: 0.23 mg/dL
  TOTAL PROTEIN: 5.63 G/DL
  URIC ACID: 0.5 mg/dL
[5]
  ABSOLUTE BASOPHIL: 0 CELLS/uL
  ABSOLUTE EOSINOPHIL: 24.67 CELLS/uL
  ABSOLUTE LYMPHOCYTE: 8554.33 CELLS/uL
  ABSOLUTE SEGMENTED NEUTROPHIL: 841.33 CELLS/uL
  BASOPHIL: 0%
  EOSINOPHIL: 0.33%
  ERYTHROCYTE COUNT: 5.87 x10E6/uL
  HEMATOCRIT: 36.37%
  HEMOGLOBIN: 13.9 G/DL
  LYMPHOCYTE: 88%
  MEAN CORPUSCULAR HEMOGLOBIN: 23.67 pg
  MEAN CORPUSCULAR HEMOGLOBIN CONCENTRATION: 38.23 G/DL
  MEAN CORPUSCULAR VOLUME: 61.93 fL
  MONOCYTE: 1.67%
  NUCLEATED RED BLOOD CELLS: 0 /100WBC
  PLATELET COUNT: 1204 x10E3/uL
  ALANINE AMINOTRANSFERASE: 147 u/L
  ALBUMIN: 3.83 G/DL
  ALKALINE PHOSPHATASE: 433.33 u/L
  ASPARTATE AMINOTRANSFERASE: 253.67 u/L
  BLOOD UREA NITROGEN: 12.33 mg/dL
  CARBON DIOXIDE: 35.67 mmol/L
  CHOLESTEROL: 135.33 mg/dL
  CREATINE PHOSPHOKINASE: 315.33 u/L
  CREATININE: 0.15 mg/dL
  GLUCOSE: 110.33 mg/dL
  LACTATE DEHYDROGENASE: 180 u/L
  POTASSIUM: 4.83 MEQ/L
  SODIUM: 143.43 MEQ/L
  TOTAL BILIRUBIN: 0.27 mg/dL
  TOTAL PROTEIN: 5.7 G/DL
  URIC ACID: 0.7 mg/dL
[6]
  ABSOLUTE BASOPHIL: 0 CELLS/uL
  ABSOLUTE EOSINOPHIL: 92.67 CELLS/uL
  ABSOLUTE LYMPHOCYTE: 7992.67 CELLS/uL
  ABSOLUTE SEGMENTED NEUTROPHIL: 4483.67 CELLS/uL
  BASOPHIL: 0%
  EOSINOPHIL: 0.67%
  ERYTHROCYTE COUNT: 7.13 x10E6/uL
  HEMATOCRIT: 41.5%
  HEMOGLOBIN: 15.4 G/DL
  LYMPHOCYTE: 64.67%
  MEAN CORPUSCULAR HEMOGLOBIN: 21.77 pg
  MEAN CORPUSCULAR HEMOGLOBIN CONCENTRATION: 37.27 G/DL
  MEAN CORPUSCULAR VOLUME: 58.43 fL
  MONOCYTE: 1.67%
  NUCLEATED RED BLOOD CELLS: 0 /100WBC
  PLATELET COUNT: 1163.67 x10E3/uL
  ALANINE AMINOTRANSFERASE: 380 u/L
  ALBUMIN: 3.27 G/DL
  ALKALINE PHOSPHATASE: 444.33 u/L
  ASPARTATE AMINOTRANSFERASE: 620.33 u/L
  BLOOD UREA NITROGEN: 39.33 mg/dL
  CARBON DIOXIDE: 27 mmol/L
  CHOLESTEROL: 132.33 mg/dL
  CREATINE PHOSPHOKINASE: 3005.33 u/L
  CREATININE: 0.42 mg/dL
  GLUCOSE: 124 mg/dL
  LACTATE DEHYDROGENASE: 673.67 u/L
  POTASSIUM: 6.23 MEQ/L
  SODIUM: 138.53 MEQ/L
  TOTAL BILIRUBIN: 0.4 mg/dL
  TOTAL PROTEIN: 5.33 G/DL
  URIC ACID: 1.5 mg/dL
